The values that follow come from patent US8278319B2, “Substituted spiroamine compounds” (Gruenenthal GmbH, priority 2008, dated 2012).

One assay has as its target T1, rat B1R (Rattus norvegicus, UniProt P97583).
T1 construct: expressed in transfected cells; host or cells: CHO K1 cells
T1 sequence (P97583 1-337): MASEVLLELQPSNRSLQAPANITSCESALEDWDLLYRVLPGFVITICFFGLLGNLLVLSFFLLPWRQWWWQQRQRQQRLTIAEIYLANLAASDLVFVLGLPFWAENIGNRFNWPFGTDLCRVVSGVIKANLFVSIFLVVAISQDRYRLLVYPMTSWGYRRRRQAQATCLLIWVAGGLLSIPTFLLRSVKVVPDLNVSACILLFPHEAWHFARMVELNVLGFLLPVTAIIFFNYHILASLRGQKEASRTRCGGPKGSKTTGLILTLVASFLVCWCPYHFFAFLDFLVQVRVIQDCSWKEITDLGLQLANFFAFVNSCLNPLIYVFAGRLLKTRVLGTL
The assay is described as follows: Functional investigation on the bradykinin receptor 1 (B1R), FLIPR Ca2+ assay, rB1R cells. Particulars: % inhibition rat B1R at 10 μM; CHO K1 cells transfected with rat B1R; agonist Des-Arg9 bradykinin at EC80; read-out: % Inh. (rat B1R) 10 μM. It counts as cell-based. The method, then: (§1) The agonistic or antagonistic action of substances can be quantified on the bradykinin receptor 1 (B1R) of the human and rat species with ectopically expressing cell lines (CHO K1 cells) and with the aid of a Ca^2+-sensitive dye (Fluo-4) using a fluorescent imaging plate reader (FLIPR). The indication in % activation is based on the Ca^2+ signal after addition of Lys-Des-Arg^9 bradykinin (0.5 nM) or Des-Arg^9 bradykinin (100 nM). Antagonists lead to a suppression of the Ca^2+ influx following administration of the agonist. The % inhibition in comparison with the maximum achievable inhibition is indicated.
(§2) The agonistic or antagonistic action of substances can be determined on the bradykinin 1 receptor (B1R) of the human and rat species with the following assay. According to this assay, the Ca^2+ inflow through the channel is quantified with the aid of a Ca^2+-sensitive dye (Fluo-4 type, Molecular Probes Europe BV, Leiden, The Netherlands) in a fluorescent imaging plate reader (FLIPR, Molecular Devices, Sunnyvale, USA).
(§3) Chinese hamster ovary cells (CHO K1 cells) which are stably transfected with the human B1R gene (hB1R cells) or the B1R gene of the rat (rB1R cells) are used. For functional investigations, these cells are plated-out onto black 96-well plates with a clear base (BD Biosciences, Heidelberg, Germany or Greiner, Frickenhausen, Germany) in a density of 20,000-35,000 cells/well. Overnight, the cells are incubated at 37° C. and 5% CO2 in culture medium (hB1R cells: Nutrient Mixture Ham's F12, Gibco Invitrogen GmbH, Karlsruhe, Germany or DMEM, Sigma-Aldrich, Taufkirchen, Germany; rB1R cells: D-MEM/F12, Gibco Invitrogen, Karlsruhe, Germany) with 10 vol. % FBS (foetal bovine serum, Gibco Invitrogen GmbH, Karlsruhe, Germany or PAN Biotech GmbH, Aidenbach, Germany). On the following day the cells are loaded with 2.13 μM Fluo-4 (Molecular Probes Europe BV, Leiden, The Netherlands) in HBSS buffer (Hank's buffered saline solution, Gibco Invitrogen GmbH, Karlsruhe, Germany) with 2.5 mM probenecid (Sigma-Aldrich, Taufkirchen, Germany) and 10 mM HEPES (Sigma-Aldrich, Taufkirchen, Germany) for 60 min at 37° C. The plates are the washed twice with HBSS buffer, and HBSS buffer which additionally contains 0.1% BSA (bovine serum albumin; Sigma-Aldrich, Taufkirchen, Germany), 5.6 mM glucose and 0.05% gelatine (Merck KGaA, Darmstadt, Germany) is added. After a further incubation of 20 minutes at room temperature, the plates are inserted into the FLIPR for Ca^2+ measurement. Alternatively they are washed with buffer A (15 mM HEPES, 80 mM NaCl, 5 mM KCl, 1.2 mM CaCl2, 0.7 mM MgSO4, 2 g/l glucose, 2.5 mM probenecid) and loaded with buffer A with added 2.5 μM Fluo-4 and 0.025% Pluronic F127 (Sigma-Aldrich, Taufkirchen, Germany). The cells are then washed twice with buffer A and incubated for 30 minutes with buffer A, which additionally contains 0.05% BSA and 0.05% gelatine, at room temperature and then used for Ca^2+ measurement in the FLIPR.
(§4) The Ca^2+-dependent fluorescence is measured here before and after addition of substances (λex=488 nm, λem=540 nm). The quantification is performed by measuring the highest fluorescence intensity (FC, fluorescence counts) over time.
(§5) The FLIPR protocol comprises two additions of substance. Test substances (10 μM) are first pipetted onto the cells and the Ca^2+ inflow is compared with the control (hB1R: Lys-Des-Arg^9 bradykinin>=50 nM; rB1R: Des-Arg^9 bradykinin 10 μM). The value in % activation based on the Ca^2+ signal after addition of Lys-Des-Arg^9 bradykinin (>=50 nM) or Des-Arg^9 bradykinin (10 μM) is obtained therefrom. After incubation for 10-20 minutes, Lys-Des-Arg^9 bradykinin (hB1R) or Des-Arg^9 bradykinin (rB1R) is applied in the EC80 concentration and the inflow of Ca^2+ is likewise determined. Antagonists lead to a suppression of the Ca^2+ inflow. The % inhibition in comparison with the maximum achievable inhibition is calculated. […]

A further assay deals with T2, human B1R (Homo sapiens, UniProt P46663).
T2 construct: expressed in transfected cells; host or cells: CHO K1 cells
T2 sequence (P46663 1-353): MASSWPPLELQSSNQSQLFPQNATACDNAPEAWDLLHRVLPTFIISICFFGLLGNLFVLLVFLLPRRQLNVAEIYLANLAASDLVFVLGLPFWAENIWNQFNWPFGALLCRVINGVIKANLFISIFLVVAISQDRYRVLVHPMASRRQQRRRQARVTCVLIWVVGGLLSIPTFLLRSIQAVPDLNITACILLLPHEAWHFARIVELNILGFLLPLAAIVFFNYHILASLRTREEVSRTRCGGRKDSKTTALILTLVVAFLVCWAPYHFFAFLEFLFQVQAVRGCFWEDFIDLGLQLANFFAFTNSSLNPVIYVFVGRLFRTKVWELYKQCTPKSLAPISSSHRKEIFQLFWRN
The assay can be described thus: Functional investigation on the bradykinin receptor 1 (B1R), FLIPR Ca2+ assay, hB1R cells. It counts as cell-based. The conditions noted are these: % inhibition human B1R at 10 μM; CHO K1 cells transfected with human B1R; agonist Lys-Des-Arg9 bradykinin at EC80; read-out: % Inh. (hum. B1R) 10 μM. The method, then:
as §1, §2, §3, §4, §5

SMILES strings stand for the structures.

Regarding `Cc1cccc(Cl)c1S(=O)(=O)N(CCOCC(=O)N1CCC2(CC1)CCC(c1cccc(F)c1)(N1CCCC1)CC2)C1CC1` [CC-06, 2-Chloro-N-cyclopropyl-N-[2-[2-[3-(3-fluorophenyl)-3-pyrrolidin-1-yl-9-azaspiro[5.5]undecan-9-yl]-2-oxo-ethoxy]-ethyl]-6-methyl-benzenesulfonic acid amide], the results for the inhibition at 10 µM on rat B1R and on human B1R were 97% and 100%, respectively.
In the case of `Cc1cc(S(=O)(=O)N2CCCCC2CCC(=O)N2CCC3(CC2)CCC(c2ccccc2)(N(C)C)CC3)c(C)cc1Cl` (centres unmarked) [Compound 7, 3-(1-(4-Chloro-2,5-dimethylphenylsulfonyl)piperidin-2-yl)-1-(9-(dimethylamino)-9-phenyl-3-azaspiro[5.5]undecan-3-yl)propan-1-one], the inhibition at 10 µM at rat B1R is 97%; at human B1R, 98%.
Turning to `COc1cc(C)c(S(=O)(=O)N2CCCCC2CCCC(=O)N2CCC3(CC2)CCC(c2cccc(F)c2)(N2CCCC2)CC3)c(C)c1` (centres unmarked) [CC-02, 1-[3-(3-Fluorophenyl)-3-pyrrolidin-1-yl-9-azaspiro[5.5]undecan-9-yl]-4-[1-[(4-methoxy-2,6-dimethyl-phenyl)sulfonyl]-pipereridin-2-yl]-butan-1-one], the inhibition at 10 µM at rat B1R amounted to 98%; on human B1R, 100%.
Consider `COc1cc(C)c(S(=O)(=O)N2CCCCC2CCCC(=O)N2CCC3(CC2)CCC(c2ccccc2)(N(C)C)CC3)c(C)c1` (centres unmarked) [Compound 8, 1-(9-(Dimethylamino)-9-phenyl-3-azaspiro[5.5]undecan-3-yl)-4-(1-(4-methoxy-2,6-dimethylphenylsulfonyl)piperidin-2-yl)butan-1-one], for which the inhibition at 10 µM on rat B1R and on human B1R was 98% throughout.
On to `Cc1cccc(Cl)c1S(=O)(=O)N1CCCCC1COCC(=O)N1CCC2(CC1)CCC(c1cccc(F)c1)(N1CCCC1)CC2` (centres unmarked) [CC-05, 2-[[1-[(2-Chloro-6-methyl-phenyl)sulfonyl]-piperidin-2-yl]-methoxy]-1-[3-(3-fluorophenyl)-3-pyrrolidin-1-yl-9-azaspiro[5.5]undecan-9-yl]-ethanone], for which the inhibition at 10 µM turned out to be 98% at rat B1R and 100% on human B1R.
Take `COc1cc(C)c(S(=O)(=O)N(CCOCC(=O)N2CCC3(CC2)CCC(c2cccc(F)c2)(N2CCCC2)CC3)C2CC2)c(C)c1` [CC-04, N-Cyclopropyl-N-[2-[2-[3-(3-fluorophenyl)-3-pyrrolidin-1-yl-9-azaspiro[5.5]undecan-9-yl]-2-oxo-ethoxy]-ethyl]-4-methoxy-2,6-dimethyl-benzenesulfonic acid amide]: the inhibition at 10 µM at rat B1R is 98%; on human B1R, 100%.
As to `Cc1cc(S(=O)(=O)N2CCCCC2CCC(=O)N2CCC3(CC2)CCC(c2cccs2)(N(C)C)CC3)c(C)cc1Cl` (centres unmarked) [CC-14, 3-[1-[(4-Chloro-2,5-dimethyl-phenyl)sulfonyl]-piperidin-2-yl]-1-(3-dimethylamino-3-thiophen-2-yl-9-azaspiro[5.5]undecan-9-yl)-propan-1-one], the inhibition at 10 µM at rat B1R was determined as 101%; at human B1R, 99%.
On to `COc1cc(C)c(S(=O)(=O)N2CCCCC2COCC(=O)N2CCC3(CC2)CCC(c2cccs2)(N(C)C)CC3)c(C)c1` (centres unmarked) [CC-11, 1-(3-Dimethylamino-3-thiophen-2-yl-9-azaspiro[5.5]undecan-9-yl)-2-[[1-[(4-rnethoxy-2,6-dimethyl-phenyl)sulfonyl]-piperidin-2-yl]-methoxy]-ethanone], for which the inhibition at 10 µM worked out at 98% on rat B1R and 100% on human B1R.
Consider `COc1cc(C)c(S(=O)(=O)N2CCCCC2COCC(=O)N2CCC3(CC2)CCC(c2cccc(F)c2)(N2CCCC2)CC3)c(C)c1` (centres unmarked) [CC-03, 1-[3-(3-Fluorophenyl)-3-pyrrolidin-1-yl-9-azaspiro[5.5]undecan-9-yl]-2-[[1-[(4-methoxy-2,6-dimethyl-phenyl)sulfonyl]-piperidin-2-yl]-methoxy]-ethanone], for which the inhibition at 10 µM is 99% at rat B1R and 100% at human B1R.
In the case of `Cc1cccc(Cl)c1S(=O)(=O)N1CCCC[C@H]1COCC(=O)N1CCC2(CC1)CCC(c1ccccc1)(N(C)C)CC2` [Compound 6, 2-(((S)-1-(2-Chloro-6-methylphenylsulfonyl)piperidin-2-yl)methoxy)-1-(9-(dimethylamino)-9-phenyl-3-azaspiro[5.5]undecan-3-yl)ethanone], the figures for the inhibition at 10 µM at rat B1R and at human B1R were 97% and 100%, respectively.
As to `Cc1cccc(Cl)c1S(=O)(=O)N(CCOCC(=O)N1CCC2(CC1)CCC(c1cccs1)(N(C)C)CC2)C1CC1` [CC-09, 2-Chloro-N-cyclopropyl-N-[2-[2-(3-dimethylamino-3-thiophen-2-yl-9-azaspiro[5.5]undecan-9-yl)-2-oxo-ethoxy]-ethyl]-6-methyl-benzenesulfonic acid amide], the inhibition at 10 µM at rat B1R was 97%; at human B1R, 100%.
Consider `COc1cc(C)c(S(=O)(=O)N2CCCCC2COCC(=O)N2CCC3(CC2)CCC(c2ccccc2)(N2CCCC2)CC3)c(C)c1` (centres unmarked) [Compound 1, 2-((1-(4-Methoxy-2,6-dimethylphenylsulfonyl)piperidin-2-yl)methoxy)-1-(9-phenyl-9-(pyrrolidin-1-yl)-3-azaspiro[5.5]undecan-3-yl)ethanone], for which the inhibition at 10 µM amounted to 92% at rat B1R and 100% at human B1R.
With `COc1cc(C)c(S(=O)(=O)N(CCOCC(=O)N2CCC3(CC2)CCC(c2cccs2)(N(C)C)CC3)C2CC2)c(C)c1` [CC-12, N-Cyclopropyl-N-[2-[2-(3-dimethylamino-3-thiophen-2-yl-9-azaspiro[5.5]undecan-9-yl)-2-oxo-ethoxy]-ethyl]-4-methoxy-2,6-dimethyl-benzenesulfonic acid amide], the inhibition at 10 µM at rat B1R stood at 97%; on human B1R, 100%.
